Test results reported in article PMC3354555, “Partial Purification and Characterization of Rhodanese from Rainbow Trout (Oncorhynchus mykiss) Liver” (The Scientific World Journal, 2012).

Tested on: T1, rainbow trout liver rhodanese (thiosulphate: cyanide sulphurtransferase, EC 2.8.1.1)
T1 construct: gene tst
Settings: 50 mM KCN, 25 mM citrate-phosphate-borate pH 10.5, 25°C; apparent; partially purified enzyme

Structure (SMILES): O=S(O)(O)=S [Na2S2O3]
- Km: 19.8 mM
